Reference: patent US4418205A, “16-Amino-18,19,20-trinor-prostaglandin derivatives, and acid addition salts” (priority 1980, dated 1983)
Where two headings read alike, the source gives them in different places.

Assays:
[1] = test system: mice being in the 16th to 17th day of their pregnancy; assay: Abortion induction in mice in the 3rd trimestre of pregnancy, subcutaneous; assay type: in vivo; conditions: pregnant mice; for ED50: Mus musculus, sc, 16th to 17th day, subcutaneous, abortions within 48 hours, obtained by interpolation, read-out: Approx. ED50 (dose inducing abortion in 50 percent of the animals)
Protocol: According to one of the test methods /M. J. K. Harper and R. C. Skarnes: Advances in Biosciences 9, 789 /1973// the test material was administered subcutaneously to mice being in the 16th to 17th day of their pregnancy /3rd trimestre/, then the number of abortions ensuing with 48 hours was registered, as well as the live and dead fetuses following the removal of the uterus, and the scars on the placenta.
(§1) Applying the above methods the dose-response relationship was established at PGF2α, and its methyl ester, as well as the compounds of general formula I of the present invention. The number of animals was 5 per dose.

pregnant mice = conditions: mouse, in vivo
[2] = test system: hamsters being in the 4th, 5th, and 6th day of pregnancy; assay: Interruption of early pregnancy in hamsters, subcutaneous; assay type: in vivo, hamster; conditions: for ED50: Mesocricetus auratus, sc, hamster, 1st trimestre, treated subcutaneously day 4, 5, 6, autopsy day 8, read-out: Approx. ED50
Protocol: (§2) Here hamsters being in the 4th, 5th, and 6th day of pregnancy were treated subcutaneously, and following autopsy on the 8th day, the number of intrauterine embryonal implantations, as well as the condition of the ovaria were investigated /N. S. Crossley: Prostaglandins 10, 5 /1975//. Similarly rats were treated on the 4th, 5th, 6th and 7th day of pregnancy, and killed on the 9th day, and the interruption of pregnancy registered at the autopsy /W. Skuballa et al.: J. Med. Chem. […], 443 /1978//.
as §1
(§3) A similar increase in potency could be observed at the treatment of animals being in the 1st trimestre of their pregnancy.
The 50 fold increase in potency compared to that of PGF2α is especially worth mentioning in the case of hamsters, as this test is suitable for the sensitive detection of the abortive effect of a given compound if it has lutheolytic activity.

[3] = test system: rats treated on the 4th, 5th, 6th and 7th day of pregnancy; assay: Interruption of early pregnancy in rats; assay type: in vivo; conditions: rat, 1st trimestre, treated day 4, 5, 6, 7, killed day 9; read-out: Approx. ED50
Protocol: as §2, §1, §3

Row | induction of diarrhoea (pregnant mice; 3 mg/kg) | Structure (SMILES) | ED50 [1] [mg/kg] | incidence of diarrhoea (pregnant mice; 3 mg/kg) | ED50 [2] [mg/kg] | ED50 [3] [mg/kg] | incidence of diarrhoea (pregnant mice; 10 mg/kg) | potency compared to PGF2α ([1]; from ED50 values) [fold] | potency compared to PGF2α methyl ester ([1]; from ED50 values) [fold] | increase in potency compared to that of PGF2α ([2]; hamsters) [fold]
1 |  | CCCCC[C@H](O)/C=C/[C@@H]1[C@@H](C/C=C\CCCC(=O)OC)[C@@H](O)C[C@H]1O [PGF2α -methyl ester, reference compound] | ~10 | over 50% |  |  |  |  |  | 
2 |  | CCCCC[C@H](O)/C=C/[C@@H]1[C@@H](C/C=C\CCCC(=O)O)[C@@H](O)C[C@H]1O [PGF2α, reference compound] | ~16 |  | ~0.025 | ~1 | over 50% |  |  | 
3 | failed to induce diarrhoea | COC(=O)CCC/C=C\C[C@@H]1[C@@H](/C=C/C(O)[C@@H](N)Cc2ccccc2)[C@H](O)C[C@@H]1O (single isomer, unassigned) [9α,11α,15/.xi./-Trihydroxy-16/S/-amino-17-phenyl-5-cis,13-trans-18,19,20-trinor-prostadienoic acid methyl ester] | ~1.2 |  | ~0.0005 | ~0.1 |  | 13 | 8 | 50
